According to patent US20260001914A1, “MACROCYCLIC PEPTIDES TARGETING KRAS” (Merck Sharp & Dohme LLC, priority 2022, published 2026):
*1 amine or outer side, *2 acyl side, *3 side chain or, on linkers, in order; H or OH if unused. Where a SMILES comes first, the peptide text is derived from it. Bridges are numbered along the chain shown (N, C = ends). [ ]: non-standard residue; d: D form. The star is where a group is joined. Phe(4-guanidino) = N=C(N)Nc1ccc(C[C@H](N)C(=O)O)cc1; X22 = CNC(=N)N(C)CCC[C@@H](C(=O)[*:2])N(C)[*:1]; Ala(pyrimidin-5-yl) = N[C@@H](Cc1cncnc1)C(=O)O; Gly(N-(CH2)3-guanidino) = N=C(N)NCCCNCC(=O)O; NMe3Pal(6-Me) = CN[C@@H](Cc1ccc(C)nc1)C(=O)O; Ala(thiazol-5-yl) = N[C@@H](Cc1cncs1)C(=O)O; NMeHis(τ-Me) = CN[C@@H](Cc1cn(C)cn1)C(=O)O; 3Pal(6-OMe) = COc1ccc(C[C@H](N)C(=O)O)cn1; X20 = CN([C@@H](Cc1cnco1)C(=O)[*:2])[*:1]; X3 = CN([C@@H](Cc1cncnc1)C(=O)[*:2])[*:1]; NMeArg(Me) = CNC(=N)NCCC[C@H](NC)C(=O)O; Phe(2-CN) = N#Cc1ccccc1C[C@H](N)C(=O)O; X47 = O=C([C@H](Cc1ccoc1)N[*:1])[*:2]; Ala(cPent) = N[C@@H](CC1CCCC1)C(=O)O; NMeF = CN[C@@H](Cc1ccccc1)C(=O)O; 3Pal = N[C@@H](Cc1cccnc1)C(=O)O; Ahp(2) = CCCCC[C@H](N)C(=O)O; Cba = N[C@@H](CC1CCC1)C(=O)O; αMeC = C[C@](N)(CS)C(=O)O; Pyrrolidide = C1CCN(*)C1

Target: phosphorylation levels of ERK1/2 in AsPC-1 (homozygous KRAS-G12D) cells (Homo sapiens, UniProt P01116, G12D)
Sequence (P01116 1-186 G12D): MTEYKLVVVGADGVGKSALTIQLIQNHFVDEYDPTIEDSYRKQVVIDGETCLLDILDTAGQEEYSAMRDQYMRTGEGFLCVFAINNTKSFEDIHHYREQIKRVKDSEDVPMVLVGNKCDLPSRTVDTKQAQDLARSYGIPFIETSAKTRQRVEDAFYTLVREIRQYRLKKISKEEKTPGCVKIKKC
Assay: Cellular phospho-ERK assay in AsPC-1 cells (Alpha Screen), assay medium without fetal bovine serum;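 also: signal taken as phospho-ERK over total ERK per well, both detected in one multiplex bead assay, EC50 from four-parameter logistic fit of dose-response curves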
Assay type: cell-based
Details: phospho-ERK AlphaScreen, 18 h
Method: Assay plate was incubated at 37° C. 5% CO2 for the indicated length of time. […] Phosphorylated ERK and total ERK levels were detected by Alpha SureFire Ultra Multiplex pERK kit (PerkinElmer MPSU-PTERK) using 5 μL, acceptor bead mix and 5 μL donor bead mix, both prepared following the manufacturer's protocol. Plates were sealed using aluminum sealing tape (Costar 07-200-683) during incubation at ambient temperature with constant shaking at 300 rpm for 1 h (both acceptor and donor). Assay plates were read on a Envision Xcite Multilabel Reader (PerkinElmer 1040900) at ambient temperature, with emission at 535 nm (Total ERK) and emission at 615 nm (Phospho ERK). Ratio of pERK vs total ERK in each well was used as the final readout. Dose response curves and EC50 were analyzed using a 4-parameter logistic equation in GraphPad Prism software.

SMILES | EC50 [µM]
CCCCC[C@@H]1NC(=O)[C@H](Cc2ccc(OC)cc2)NC(=O)[C@H](CC2CCC2)NC(=O)[C@H](Cc2ccc(NC(=N)N)cc2)NC(=O)CN(CCCNC(=N)N)C(=O)[C@H](Cc2ccccc2)NC(=O)CSC[C@@](C)(C(N)=O)NC(=O)[C@H](Cc2ccccc2)N(C)C1=O [compound 361, cyclo(F-NGnG-Phe4Gn-cBuA-TyrOMe-Ahp-NMeF-aMeCl-ClAc)] ({CH2CO}-F[Gly(N-(CH2)3-guanidino)][Phe(4-guanidino)][Cba]Y(Me)[Ahp(2)][NMeF][αMeC]-NH2; thioether N-8) | 39.7
CCCCC[C@@H]1NC(=O)[C@H](Cc2ccc(OC)cc2)NC(=O)[C@H](CC2CCC2)NC(=O)[C@H](Cc2ccn(C)n2)NC(=O)[C@H](CCCNC(=N)N)NC(=O)[C@H](Cc2ccccc2)NC(=O)CSC[C@@](C)(C(N)=O)NC(=O)[C@H](Cc2ccccc2)N(C)C1=O [compound 362, cyclo(F-R-MePyzAla-cBuA-TyrOMe-Ahp-NMeF-aMeCl-ClAc)] | > 50.8
CCCCC[C@@H]1NC(=O)[C@H](Cc2ccc(OC)cc2)NC(=O)[C@H](CC2CCC2)NC(=O)[C@H](Cc2cncs2)NC(=O)[C@H](CCCNC(=N)N)NC(=O)[C@H](Cc2ccccc2)NC(=O)CSC[C@@](C)(C(N)=O)NC(=O)[C@H](Cc2ccccc2)N(C)C1=O [compound 363, cyclo(F-R-TZAla-cBuA-TyrOMe-Ahp-NMeF-aMeCl-ClAc)] ({CH2CO}-FR[Ala(thiazol-5-yl)][Cba]Y(Me)[Ahp(2)][NMeF][αMeC]-NH2; thioether N-8) | > 50.8
CCCCC[C@@H]1NC(=O)[C@H](Cc2ccc(OC)cc2)NC(=O)[C@H](CC2CCC2)NC(=O)[C@H](Cc2ccc(C)nc2)NC(=O)[C@H](CCCNC(=N)N)NC(=O)[C@H](Cc2ccccc2)NC(=O)CSC[C@@](C)(C(N)=O)NC(=O)[C@H](Cc2ccccc2)N(C)C1=O [compound 364, cyclo(F-R-4Me3Pal-cBuA-TyrOMe-Ahp-NMeF-aMeCl-ClAc)] | > 50.8
CCCCC[C@@H]1NC(=O)[C@H](Cc2ccc(OC)cc2)NC(=O)[C@H](CC2CCC2)NC(=O)[C@H](Cc2ccc(OC)nc2)NC(=O)[C@H](CCCNC(=N)N)NC(=O)[C@H](Cc2ccccc2)NC(=O)CSC[C@@](C)(C(N)=O)NC(=O)[C@H](Cc2ccccc2)N(C)C1=O [compound 365, cyclo(F-R-40Me3Pal-cBuA-TyrOMe-Ahp-NMeF-aMeCl-ClAc)] ({CH2CO}-FR[3Pal(6-OMe)][Cba]Y(Me)[Ahp(2)][NMeF][αMeC]-NH2; thioether N-8) | > 50.8
CCCCC[C@@H]1NC(=O)[C@H](Cc2ccc(OC)cc2)NC(=O)[C@H](CC2CCCC2)NC(=O)[C@H](Cc2ccc(NC(=N)N)cc2)NC(=O)[C@H](CCCNC(=N)N)NC(=O)[C@H](Cc2ccccc2)NC(=O)CSC[C@@](C)(C(N)=O)NC(=O)[C@H](Cc2ccccc2)N(C)C1=O [compound 366, cyclo(F-R-Phe4Gn-cPeA-TyrOMe-Ahp-NMeF-aMeCl-ClAc)] ({CH2CO}-FR[Phe(4-guanidino)][Ala(cPent)]Y(Me)[Ahp(2)][NMeF][αMeC]-NH2; thioether N-8) | 12.2
CCCCC[C@@H]1NC(=O)[C@H](Cc2ccc(OC)cc2)NC(=O)[C@H](CC2CCC2)NC(=O)[C@H](Cc2cncnc2)NC(=O)[C@H](CCCNC(=N)N)NC(=O)[C@H](Cc2ccccc2)NC(=O)CSC[C@@](C)(C(N)=O)NC(=O)[C@H](Cc2ccccc2)N(C)C1=O [compound 367, cyclo(F-R-PyrimAla-cBuA-TyrOMe-Ahp-NMeF-aMeCl-ClAc)] ({CH2CO}-FR[Ala(pyrimidin-5-yl)][Cba]Y(Me)[Ahp(2)][NMeF][αMeC]-NH2; thioether N-8) | > 50.8
CCCCC[C@@H]1NC(=O)[C@H](Cc2ccc(OC)cc2)NC(=O)[C@H](CC2CCC2)NC(=O)[C@H](Cc2cc[nH]c(=O)c2)NC(=O)[C@H](CCCNC(=N)N)NC(=O)[C@H](Cc2ccccc2)NC(=O)CSC[C@@](C)(C(N)=O)NC(=O)[C@H](Cc2ccccc2)N(C)C1=O [compound 368, cyclo(F-R-SCO4Pal-cBuA-TyrOMe-Ahp-NMeF-aMeCl-ClAc)] | > 50.8
CCCCC[C@@H]1NC(=O)[C@H](Cc2ccc(OC)cc2)NC(=O)[C@H](CC2CCC2)NC(=O)[C@H](Cc2ccc(=O)[nH]c2)NC(=O)[C@H](CCCNC(=N)N)NC(=O)[C@H](Cc2ccccc2)NC(=O)CSC[C@@](C)(C(N)=O)NC(=O)[C@H](Cc2ccccc2)N(C)C1=O [compound 369, cyclo(F-R-4CO3Pal-cBuA-TyrOMe-Abp-NMeF-aMeCl-ClAc)] | > 50.8
CCCCC[C@@H]1NC(=O)[C@H](Cc2ccc(OC)cc2)NC(=O)[C@H](CC2CCC2)NC(=O)[C@H](Cc2cccnc2)NC(=O)[C@H](CCCNC(=N)N)NC(=O)[C@H](Cc2ccccc2F)NC(=O)CSC[C@@](C)(C(N)=O)NC(=O)[C@H](Cc2ccccc2)N(C)C1=O [compound 370, cyclo(Phe2F-R-3Pal-cBuA-TyrOMe-Ahp-NMeF-aMeCl-ClAc)] | > 50.8
CCCCC[C@@H]1NC(=O)[C@H](Cc2ccc(OC)cc2)NC(=O)[C@H](CC2CCC2)NC(=O)[C@H](Cc2ccoc2)NC(=O)[C@H](CCCNC(=N)N)NC(=O)[C@H](Cc2ccccc2)NC(=O)CSC[C@@](C)(C(N)=O)NC(=O)[C@H](Cc2ccccc2)N(C)C1=O [compound 371, cyclo(F-R-Ala3Fur-cBuA-TyrOMe-Ahp-NMeF-aMeCl-ClAc)] | > 50.8
CCCCC[C@@H]1NC(=O)[C@H](Cc2ccc(OC)cc2)NC(=O)[C@H](CC2CCC2)NC(=O)[C@H](Cc2cnn(C)c2)NC(=O)[C@H](CCCNC(=N)N)NC(=O)[C@H](Cc2ccccc2)NC(=O)CSC[C@@](C)(C(N)=O)NC(=O)[C@H](Cc2ccccc2)N(C)C1=O [compound 372, cyclo(F-R-Ala4PyzlMe-cBuA-TyrOMe-Ahp-NMeF-aMeCl-ClAc)] | > 50.8
CCCCC[C@@H]1NC(=O)[C@H](CC(=O)N2CCCC2)NC(=O)[C@H](CC2CCC2)NC(=O)[C@H](Cc2cccnc2)NC(=O)[C@H](CCCNC(=N)N)NC(=O)[C@H](Cc2ccccc2)NC(=O)CSC[C@@](C)(C(N)=O)NC(=O)[C@H](Cc2ccccc2)N(C)C1=O [compound 373, cyclo(F-R~3Pal-cBuA-PyD-Ahp-NMeF-aMeCl-ClAc)] ({CH2CO}-FR[3Pal][Cba]D(Pyrrolidide)[Ahp(2)][NMeF][αMeC]-NH2; thioether N-8) | > 50.8
CCCCC[C@@H]1NC(=O)[C@H](Cc2ccoc2)NC(=O)[C@H](CC2CCC2)NC(=O)[C@H](Cc2cccnc2)NC(=O)[C@H](CCCNC(=N)N)NC(=O)[C@H](Cc2ccccc2)NC(=O)CSC[C@@](C)(C(N)=O)NC(=O)[C@H](Cc2ccccc2)N(C)C1=O [compound 374, cyclo(F-R-3Pal-cBuA-Ala3Fur-Ahp-NMeF-aMeCl-ClAc)] ({CH2CO}-FR[3Pal][Cba][X47][Ahp(2)][NMeF][αMeC]-NH2; thioether N-8) | > 50.8
CCCCC[C@@H]1NC(=O)[C@H](Cc2ccccc2C#N)NC(=O)[C@H](CC2CCC2)NC(=O)[C@H](Cc2cccnc2)NC(=O)[C@H](CCCNC(=N)N)NC(=O)[C@H](Cc2ccccc2)NC(=O)CSC[C@@](C)(C(N)=O)NC(=O)[C@H](Cc2ccccc2)N(C)C1=O [compound 375, cyclo(F-R-3Pal-cBuA-Phe2CN-Ahp-NMeF-aMeCl-ClAc)] ({CH2CO}-FR[3Pal][Cba][Phe(2-CN)][Ahp(2)][NMeF][αMeC]-NH2; thioether N-8) | > 50.8
CCCCC[C@@H]1NC(=O)[C@H](Cc2ccc(OC)cc2)NC(=O)[C@H](CC2CCC2)NC(=O)[C@H](Cc2cccnc2)NC(=O)[C@H](CCCNC(=N)N)NC(=O)[C@H](Cc2ccccc2)NC(=O)CSC[C@@](C)(C(N)=O)NC(=O)[C@H](Cc2cncnc2)N(C)C1=O [compound 376, cyclo(F-R-3Pal-cBuA-TyrOMe-Ahp-NMeAlaPyrim-aMeCl-ClAc)] ({CH2CO}-FR[3Pal][Cba]Y(Me)[Ahp(2)][X3][αMeC]-NH2; thioether N-8) | > 50.8
CCCCC[C@@H]1NC(=O)[C@H](Cc2ccc(OC)cc2)NC(=O)[C@H](CC2CCC2)NC(=O)[C@H](Cc2cccnc2)NC(=O)[C@H](CCCNC(=N)N)NC(=O)[C@H](Cc2ccccc2)NC(=O)CSC[C@@](C)(C(N)=O)NC(=O)[C@H](Cc2ccc(C)nc2)N(C)C1=O [compound 377, cyclo(F-R-3Pal-cBuA-TyrOMe-Ahp-NMe3Pal4Me-aMeCl-ClAc)] ({CH2CO}-FR[3Pal][Cba]Y(Me)[Ahp(2)][NMe3Pal(6-Me)][αMeC]-NH2; thioether N-8) | > 50.8
CCCCC[C@@H]1NC(=O)[C@H](Cc2ccc(OC)cc2)NC(=O)[C@H](CC2CCC2)NC(=O)[C@H](Cc2cccnc2)NC(=O)[C@H](CCCNC(=N)N)NC(=O)[C@H](Cc2ccccc2)NC(=O)CSC[C@@](C)(C(N)=O)NC(=O)[C@H](Cc2cn(C)cn2)N(C)C1=O [compound 378, cyclo(F-R-3Pal-cBuA-TyrOMe-Ahp-NMeHis1Me-aMeCl-ClAc)] ({CH2CO}-FR[3Pal][Cba]Y(Me)[Ahp(2)][NMeHis(τ-Me)][αMeC]-NH2; thioether N-8) | > 50.8
CCCCC[C@@H]1NC(=O)[C@H](Cc2ccc(OC)cc2)NC(=O)[C@H](CC2CCC2)NC(=O)[C@H](Cc2cccnc2)NC(=O)[C@H](CCCNC(=N)N)NC(=O)[C@H](Cc2ccccc2)NC(=O)CSC[C@@](C)(C(N)=O)NC(=O)[C@H](Cc2cnco2)N(C)C1=O [compound 379, cyclo(F-R-3Pal-cBuA-TyrOMe-Ahp-NMeAla5Oxa-aMeCl-ClAc)] ({CH2CO}-FR[3Pal][Cba]Y(Me)[Ahp(2)][X20][αMeC]-NH2; thioether N-8) | > 50.8
CCCCC[C@@H]1NC(=O)[C@H](Cc2ccc(OC)cc2)NC(=O)[C@H](CC2CCC2)NC(=O)[C@H](Cc2ccc(NC(=N)N)cc2)NC(=O)[C@H](CCCNC(=N)NC)N(C)C(=O)[C@H](Cc2ccccc2)NC(=O)CSC[C@@](C)(C(N)=O)NC(=O)[C@H](Cc2ccccc2)N(C)C1=O [compound 380, cyclo(F-NMeArgMe-Phe4Gn-cBuA-TyrOMe-Abp-NMeF-aMeCl-ClAc)] ({CH2CO}-F[NMeArg(Me)][Phe(4-guanidino)][Cba]Y(Me)[Ahp(2)][NMeF][αMeC]-NH2; thioether N-8) | > 50.8
CCCCC[C@@H]1NC(=O)[C@H](Cc2ccc(OC)cc2)NC(=O)[C@H](CC2CCC2)NC(=O)[C@H](Cc2ccc(NC(=N)N)cc2)NC(=O)[C@H](CCCN(C)C(=N)NC)N(C)C(=O)[C@H](Cc2ccccc2)NC(=O)CSC[C@@](C)(C(N)=O)NC(=O)[C@H](Cc2ccccc2)N(C)C1=O [compound 381, cyclo(F-NMeArg1MeMe-Phe4Gn-cBuA-TyrOMe-Ahp-NMeF-aMeCl-ClAc)] ({CH2CO}-F[X22][Phe(4-guanidino)][Cba]Y(Me)[Ahp(2)][NMeF][αMeC]-NH2; thioether N-8) | > 50.8
